Legend:
[1] = biological target: CDK4/Cyclin D1 (Homo sapiens (Human), UniProt P11802); experiment: CDK4/Cyclin D1 kinase TR-FRET inhibition assay; type: biochemical; settings: 1 mM ATP, Rb (Ser780)-biotin substrate, read-out: CDK4D1 IC50
Experimental: (§1) Compounds disclosed herein were tested for inhibition of CDK4/Cyclin D1 or CDK6/Cyclin D3 kinase in an assay based on the time-resolved fluorescence-resonance energy transfer (TR-FRET) methodology. The assay was carried out in 384-well low volume black plates in a reaction mixture containing CDK4/Cyclin D1 or CDK6/Cyclin D3, 1 mM ATP, 0.15 μM Rb (Ser780)-biotin substrate and 0-10 μM compound in buffer containing 50 mM HEPES pH7.0, 0.02% NaN3, 0.01% BSA, 0.1 mM Orthovanadate, 50 mM MgCl2, 1 mM DTT and 0.005% Tween-20. The kinase was incubated with compound for 60 minutes at room temperature and the reaction was initiated by the addition of ATP and Rb (Ser780)-biotin substrate. After reaction at room temperature for 120 minutes, an equal volume of stop/detection solution was added according to the manufacture's instruction (Cisbio Bioassays). The stop/detection solution contained Streptavidin-XL665 and Anti-pRb (Ser780) mAb-Eu Cryptate in Detection buffer (Cisbio Bioassays). Plates were incubated at room temperature for 60 minutes, and the TR-FRET signals (ex337 nm, em665 nm/620 nm) were recorded on a PHERAstar FSX plate reader (BMG Labtech). The inhibition percentage of CDK4/Cyclin D1 or CDK6/Cyclin D3 kinase activity in presence of increasing concentrations of compounds was calculated based on the ratio of fluorescence at 665 nm to that at 620 nm. The IC50 for each compound was derived from fitting the data to the four-parameter logistic equation by Dotmatics.

[2] = biological target: CDK6/Cyclin D3 (Homo sapiens (Human), UniProt Q00534); experiment: CDK6/Cyclin D3 kinase TR-FRET inhibition assay; type: biochemical; settings: 1 mM ATP, Rb (Ser780)-biotin substrate, read-out: CDK6D3 IC50
Experimental: as §1

Chain of CDK4/Cyclin D1 (P11802 whole entry): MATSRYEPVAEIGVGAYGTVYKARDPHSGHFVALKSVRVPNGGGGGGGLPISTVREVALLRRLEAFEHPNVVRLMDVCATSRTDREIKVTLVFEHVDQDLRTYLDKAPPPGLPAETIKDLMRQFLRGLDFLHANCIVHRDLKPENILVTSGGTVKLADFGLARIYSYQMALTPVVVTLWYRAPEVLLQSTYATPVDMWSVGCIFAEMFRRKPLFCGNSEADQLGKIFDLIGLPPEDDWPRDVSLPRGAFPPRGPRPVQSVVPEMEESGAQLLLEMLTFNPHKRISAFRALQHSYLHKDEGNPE
Chain of CDK4/Cyclin D1 (P24385 whole entry partner): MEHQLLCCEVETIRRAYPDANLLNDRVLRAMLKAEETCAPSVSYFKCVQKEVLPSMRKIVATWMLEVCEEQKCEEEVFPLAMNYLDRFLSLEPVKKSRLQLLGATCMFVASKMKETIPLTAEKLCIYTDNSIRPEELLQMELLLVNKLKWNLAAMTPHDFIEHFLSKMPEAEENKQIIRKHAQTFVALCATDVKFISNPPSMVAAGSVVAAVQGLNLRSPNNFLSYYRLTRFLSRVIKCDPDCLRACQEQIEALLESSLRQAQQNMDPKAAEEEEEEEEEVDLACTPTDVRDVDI
Chain of CDK6/Cyclin D3 (Q00534 whole entry): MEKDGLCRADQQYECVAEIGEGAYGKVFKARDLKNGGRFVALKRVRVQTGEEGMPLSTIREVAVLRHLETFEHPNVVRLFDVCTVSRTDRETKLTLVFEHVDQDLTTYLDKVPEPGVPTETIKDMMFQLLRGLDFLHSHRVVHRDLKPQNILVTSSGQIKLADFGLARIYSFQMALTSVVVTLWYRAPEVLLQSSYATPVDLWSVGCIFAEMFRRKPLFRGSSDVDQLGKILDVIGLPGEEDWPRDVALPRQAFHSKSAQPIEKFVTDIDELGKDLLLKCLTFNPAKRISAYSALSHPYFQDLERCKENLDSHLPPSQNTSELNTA
Chain of CDK6/Cyclin D3 (P30281 whole entry partner): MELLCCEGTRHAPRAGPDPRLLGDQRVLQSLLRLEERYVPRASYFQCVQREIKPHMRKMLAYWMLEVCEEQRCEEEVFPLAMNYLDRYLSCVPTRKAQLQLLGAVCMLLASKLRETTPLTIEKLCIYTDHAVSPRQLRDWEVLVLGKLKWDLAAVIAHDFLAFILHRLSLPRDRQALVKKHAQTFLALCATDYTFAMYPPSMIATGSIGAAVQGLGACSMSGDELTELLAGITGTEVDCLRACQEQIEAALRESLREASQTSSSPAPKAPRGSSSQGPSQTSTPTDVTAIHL

Compound | IC50 [1] [nM] | IC50 [2] [nM]
CC(C)c1c(CNC2CC(F)(F)C2)cnc2ccc(-c3nc(N[C@@H]4CCOC[C@H]4O)ncc3F)cc12 [Example 20, (3S,4R)-4-((4-(3-(((3,3-difluorocyclobutyl)amino)methyl)-4-isopropylquinolin-6-yl)-5-fluoropyrimidin-2-yl)amino)tetrahydro-2H-pyran-3-ol] | 12 | 600
CC(C)c1c(CN2C3CCCC2CC(O)C3)cnc2ccc(-c3nc(N[C@@H]4CCOC[C@H]4O)ncc3F)cc12 (stereo partly drawn) [Example 60, (1R,3R,5S)-9-((6-(5-fluoro-2-(((3S,4R)-3-hydroxytetrahydro-2H-pyran-4-yl)amino)pyrimidin-4-yl)-4-isopropylquinolin-3-yl)methyl)-9-azabicyclo[3.3.1]nonan-3-ol] | 15 | 585
CC(C)c1c(CNc2ccccn2)cnc2ccc(-c3nc(N[C@@H]4CCOC[C@H]4O)ncc3F)cc12 [Example 59, (3S,4R)-4-((5-fluoro-4-(4-isopropyl-3-((pyridin-2-ylamino)methyl)quinolin-6-yl)pyrimidin-2-yl)amino)tetrahydro-2H-pyran-3-ol] | 46 | 3590
CC(C)c1c(C(C)(C)O)cnc2cc(F)c(-c3nc(N[C@@H]4CCOC[C@H]4O)ncc3F)cc12 [Example 116, (3S,4R)-4-((5-fluoro-4-(7-fluoro-3-(2-hydroxypropan-2-yl)-4-isopropylquinolin-6-yl)pyrimidin-2-yl)amino)tetrahydro-2H-pyran-3-ol] | 10.9 | 198
CC(C)c1c(CN2CCC[C@H](O)C2)cnc2ccc(-c3nc(N[C@@H]4CCOC[C@H]4O)ncc3F)cc12 [Example 57, (S)-1-((6-(5-fluoro-2-(((3S,4R)-3-hydroxytetrahydro-2H-pyran-4-yl)amino)pyrimidin-4-yl)-4-isopropylquinolin-3-yl)methyl)piperidin-3-ol] | 18 | 486
CC(C)NCc1cnc2ccc(-c3nc(N[C@@H]4CCOC[C@H]4O)ncc3F)cc2c1C(C)C [Example 22, (3S,4R)-4-((5-fluoro-4-(4-isopropyl-3-((isopropylamino)methyl)quinolin-6-yl)pyrimidin-2-yl)amino)tetrahydro-2H-pyran-3-ol] | 7.1 | 398
COCc1cnc2ccc(-c3nc(N[C@@H]4CCOC[C@H]4O)ncc3F)cc2c1C(C)C [Example 31, (3S,4R)-4-((5-fluoro-4-(4-isopropyl-3-(methoxymethyl)quinolin-6-yl)pyrimidin-2-yl)amino)tetrahydro-2H-pyran-3-ol] | 25 | 275
CC(C)c1c(CNC2CCCC2)cnc2ccc(-c3nc(N[C@@H]4CCOC[C@H]4O)ncc3F)cc12 [Example 26, (3S,4R)-4-((4-(3-((cyclopentylamino)methyl)-4-isopropylquinolin-6-yl)-5-fluoropyrimidin-2-yl)amino)tetrahydro-2H-pyran-3-ol] | 33 | 990
CC(C)c1c(CN2C[C@H]3C[C@@H]2CO3)cnc2ccc(-c3nc(N[C@@H]4CCOC[C@H]4O)ncc3F)cc12 [Example 49, (3S,4R)-4-((4-(3-(((1R,4R)-2-oxa-5-azabicyclo[2.2.1]heptan-5-yl)methyl)-4-isopropylquinolin-6-yl)-5-fluoropyrimidin-2-yl)amino)tetrahydro-2H-pyran-3-ol] | 14 | 392
COc1ccc(NCc2cnc3ccc(-c4nc(N[C@@H]5CCOC[C@H]5O)ncc4F)cc3c2C(C)C)cc1 [Example 46, (3S,4R)-4-((5-fluoro-4-(4-isopropyl-3-(((4-methoxyphenyl)amino)methyl)quinolin-6-yl)pyrimidin-2-yl)amino)tetrahydro-2H-pyran-3-ol] | 65 | 1040
CC(C)c1c(CN2CCOCC2)cnc2ccc(-c3nc(N[C@@H]4CCOC[C@H]4O)ncc3F)cc12 [Example 17, (3S,4R)-4-((5-fluoro-4-(4-isopropyl-3-(morpholinomethyl)quinolin-6-yl)pyrimidin-2-yl)amino)tetrahydro-2H-pyran-3-ol] | 11 | 187
CC(C)c1nc(C(C)(C)O)nc2ccc(-c3nc(N[C@@H]4CCOC[C@H]4O)ncc3F)cc12 [Example 207, (3S,4R)-4-((5-fluoro-4-(2-(2-hydroxypropan-2-yl)-4-isopropylquinazolin-6-yl)pyrimidin-2-yl)amino)tetrahydro-2H-pyran-3-ol] | 536 | 3020
CC(C)c1c(CN2CCC[C@H](C#N)C2)cnc2ccc(-c3nc(N[C@@H]4CCOC[C@H]4O)ncc3F)cc12 [Example 61, (S)-1-((6-(5-fluoro-2-(((3S,4R)-3-hydroxytetrahydro-2H-pyran-4-yl)amino)pyrimidin-4-yl)-4-isopropylquinolin-3-yl)methyl)piperidine-3-carbonitrile] | 8.7 | 426
CC(C)c1c(C(C)(C)O)cnc2cc(Cl)c(-c3nc(N[C@@H]4CCOC[C@H]4O)ncc3F)cc12 [Example 70, (3S,4R)-4-((4-(7-chloro-3-(2-hydroxypropan-2-yl)4-isopropylquinolin-6-yl)-5-fluoropyrimidin-2-yl)amino)tetrahydro-2H-pyran-3-ol] | 31 | 508
CC(C)c1c(CN2CCCC2=O)cnc2ccc(-c3nc(N[C@@H]4CCOC[C@H]4O)ncc3F)cc12 [Example 12, 1-((6-(5-fluoro-2-(((3S,4R)-3-hydroxytetrahydro-2H-pyran-4-yl)amino)pyrimidin-4-yl)-4-isopropylquinolin-3-yl)methyl)pyrrolidin-2-one] | 19 | 323
CC(C)c1c(CN2CCOC[C@H]2C)cnc2ccc(-c3nc(N[C@@H]4CCOC[C@H]4O)ncc3F)cc12 [Example 58, (3S,4R)-4-((5-fluoro-4-(4-isopropyl-3-(((R)-3-methylmorpholino)methyl)quinolin-6-yl)pyrimidin-2-yl)amino)tetrahydro-2H-pyran-3-ol] | 14 | 406
CC(C)c1ccnc2ccc(-c3nc(N[C@@H]4CCOC[C@H]4O)ncc3F)cc12 [Example 8, (3S,4R)-4-((5-fluoro-4-(4-isopropylquinolin-6-yl)pyrimidin-2-yl)amino)tetrahydro-2H-pyran-3-ol] | 14 | 252
CC(C)c1c(CN2CCCOCC2)cnc2ccc(-c3nc(N[C@@H]4CCOC[C@H]4O)ncc3F)cc12 [Example 44, (3S,4R)-4-((4-(3-((1,4-oxazepan-4-yl)methyl)-4-isopropylquinolin-6-yl)-5-fluoropyrimidin-2-yl)amino)tetrahydro-2H-pyran-3-ol] | 25 | 475
Cc1nc2ccc(-c3nc(N[C@@H]4CCOC[C@H]4O)ncc3F)cc2c(C(C)C)c1CO [Example 15, (3S,4R)-4-((5-fluoro-4-(3-(hydroxymethyl)-4-isopropyl-2-methylquinolin-6-yl)pyrimidin-2-yl)amino)tetrahydro-2H-pyran-3-ol] | 43 | 559
CC(C)c1c(CN2CCOCC23CC3)cnc2ccc(-c3nc(N[C@@H]4CCOC[C@H]4O)ncc3F)cc12 [Example 36, (3S,4R)-4-((4-(3-((7-oxa-4-azaspiro[2.5]octan-4-yl)methyl)-4-isopropylquinolin-6-yl)-5-fluoropyrimidin-2-yl)amino)tetrahydro-2H-pyran-3-ol] | 14 | 224
CC(C)c1c(CN[C@H]2CCCOC2)cnc2ccc(-c3nc(N[C@@H]4CCOC[C@H]4O)ncc3F)cc12 [Example 37, (3S,4R)-4-((5-fluoro-4-(4-isopropyl-3-((((S)-tetrahydro-2H-pyran-3-yl)amino)methyl)quinolin-6-yl)pyrimidin-2-yl)amino)tetrahydro-2H-pyran-3-ol] | 27 | 945
CC(C)c1c(CN2CC[C@H](F)C2)cnc2ccc(-c3nc(N[C@@H]4CCOC[C@H]4O)ncc3F)cc12 [Example 18, (3S,4R)-4-((5-fluoro-4-(3-(((S)-3-fluoropyrrolidin-1-yl)methyl)-4-isopropylquinolin-6-yl)pyrimidin-2-yl)amino)tetrahydro-2H-pyran-3-ol] | 26 | 598
CC(C)c1c(CNC2CCOCC2)cnc2ccc(-c3nc(N[C@@H]4CCOC[C@H]4O)ncc3F)cc12 [Example 29, (3S,4R)-4-((5-fluoro-4-(4-isopropyl-3-(((tetrahydro-2H-pyran-4-yl)amino)methyl)quinolin-6-yl)pyrimidin-2-yl)amino)tetrahydro-2H-pyran-3-ol] | 20 | 860

Source: patent US20240300937A1, “Substituted 6-(Pyrimidin-4-yl)Quinoline Compounds as Cyclin Dependent Kinase Inhibitors” (BeiGene, Ltd., priority 2022, published 2024)
